Experimental data published in ChEMBL document CHEMBL3217534, “Glyco-Phospho-Glycero Ether Lipids (GPGEL): synthesis and evaluation as small conductance Ca2+-activated K+ channel (SK3) inhibitors” (Medchemcomm, 2012).
Converted amounts (≈) assume the structure as drawn. The source made the active and inactive calls. The calls are words filed in the database; no cut-off is given here.

How the values were obtained:
HEK-293T [1] = test: Cytotoxicity against HEK293T cells expressing rat SK3 assessed as cell viability at 10 uM after 48 hrs by MTT assay; assay type: cell-based; conditions: human
HEK-293T [2] = test: Effect on SK3 deficient HEK293T cell migration at 100 nM after 15 hrs by DAPI staining; assay type: functional, cell-based; conditions: Homo sapiens
[3] = molecular target: Small conductance calcium-activated potassium channel protein 3 (Rattus norvegicus) (UniProt P70605); test: Inhibition of recombinant rat SK3 expressed in HEK293T cells assessed as inhibition of cell migration at 100 nM after 15 hrs by DAPI staining; assay type: cell-based; conditions: HEK-293T
Chain of Small conductance calcium-activated potassium channel protein 3 (Rattus norvegicus) (P70605 whole entry): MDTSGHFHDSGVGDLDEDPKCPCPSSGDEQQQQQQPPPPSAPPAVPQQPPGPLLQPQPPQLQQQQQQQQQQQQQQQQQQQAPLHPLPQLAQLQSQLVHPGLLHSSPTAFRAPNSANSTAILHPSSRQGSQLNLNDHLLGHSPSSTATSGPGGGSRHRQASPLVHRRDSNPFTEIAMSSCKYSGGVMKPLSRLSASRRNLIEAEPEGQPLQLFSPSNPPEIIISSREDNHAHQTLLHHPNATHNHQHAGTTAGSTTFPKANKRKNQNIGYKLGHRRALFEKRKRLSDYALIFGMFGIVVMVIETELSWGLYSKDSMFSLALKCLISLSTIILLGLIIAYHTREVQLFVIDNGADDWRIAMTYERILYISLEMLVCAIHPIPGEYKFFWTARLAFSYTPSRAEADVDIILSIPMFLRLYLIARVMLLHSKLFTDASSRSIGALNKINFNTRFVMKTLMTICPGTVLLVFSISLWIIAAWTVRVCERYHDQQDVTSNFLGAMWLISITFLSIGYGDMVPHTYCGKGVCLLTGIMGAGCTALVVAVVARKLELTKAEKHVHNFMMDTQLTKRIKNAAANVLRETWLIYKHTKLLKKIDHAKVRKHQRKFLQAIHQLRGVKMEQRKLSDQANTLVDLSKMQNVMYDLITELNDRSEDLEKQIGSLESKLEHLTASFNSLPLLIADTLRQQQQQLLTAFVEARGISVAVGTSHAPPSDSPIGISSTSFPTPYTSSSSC

[4] = molecular target: Small conductance calcium-activated potassium channel protein 3 (Rattus norvegicus) (UniProt P70605); test: Inhibition of recombinant rat SK3 expressed in HEK293T cells assessed as decrease in channel current amplitude at 0 mV holding potential at 10 uM measured for 3 mins by patch clamp assay relative to control; assay type: cell-based; conditions: HEK-293T
[5] = Solubility of the compound in water; assay type: physicochemical

Row | inhibition [3] [%] | inhibition [4] [%] | solubility [5] [µM] | SMILES | Activity (HEK-293T [1]) | Activity (HEK-293T [2])
1 | 40 | 60 | – | CCCCCCCCCCCCCCCCOCC(COP(=O)(O)OC1O[C@H](CO)[C@@H](O[C@H]2O[C@H](CO)[C@@H](O)[C@H](O)[C@H]2O)[C@H](O)[C@H]1O)OC.CCN(CC)CC (some centres not stated) | Non-toxic | inactive
2 | 40 | 70.8 | – | CCCCCCCCCCCCCCCCOCC(COP(=O)(O)O[C@H]1O[C@H](CO)[C@@H](O[C@H]2O[C@H](CO)[C@@H](O)[C@H](O)[C@H]2O)[C@H](O)[C@H]1O)OC.CCN(CC)CC (some centres not stated) | Non-toxic | inactive
3 | 40 | 69.2 | 16 | CCCCCCCCCCCCCCCCOCC(COP(=O)(O)OC1O[C@H](CO)[C@@H](O[C@@H]2O[C@H](CO)[C@H](O)[C@H](O)[C@H]2O)[C@H](O)[C@H]1O)OC.CCN(CC)CC (some centres not stated) | Non-toxic | inactive
4 | 40 | 65.5 | – | CCCCCCCCCCCCCCCCOCC(COP(=O)(O)OC1O[C@H](CO[C@H]2O[C@H](CO)[C@H](O)[C@H](O)[C@H]2O)[C@@H](O)[C@H](O)[C@H]1O)OC.CCN(CC)CC (some centres not stated) | Non-toxic | inactive
5 | 40 | 73.2 | 9 (≈ 5.89 µg/mL) | CCCCCCCCCCCCCCCCOCC(CO[C@H]1O[C@H](CO)[C@@H](O[C@@H]2O[C@H](CO)[C@H](O)[C@H](O)[C@H]2O)[C@H](O)[C@H]1O)OC (some centres not stated) | Non-toxic | inactive
